According to patent US8138177B2 (dated 2012):
Structures can show the parent of a compound that is named as a salt.

melting point [°C]	Compound
190.7	Cc1cccc2c1n(CCS(C)(=O)=O)c(=O)n2C(=O)N[C@H](C(=O)N(C)C)C(C)(C)C
217.1	CC[C@H](C)[C@H](NC(=O)n1c(=O)n(CCN2CCCCC2)c2ccccc21)C(N)=O (as salt: hydrochloride)
